Results: patent EP4699613A1, “NOVEL USE OF CPNE7 PROTEIN-DERIVED PEPTIDE” (Hysensbio Co., Ltd, priority 2023, dated 2024)
No end group written: not given here.

Legend:
[1] = tested on: Human dermal fibroblasts (hDFs); experiment: WST-8 assay, cytotoxicity in dermal fibroblasts; type: cell-based; conditions: 48 hours treatment; tested at 10, 100 µM, 1, 5, 10 mM; WST-8, 450nm absorbance
Procedure: Human dermal fibroblasts (hDFs) were dispensed at 0.3×10^5/well in 96-well plates (using Fibroblast Growth Medium (Lonza, CC-4126) containing 2% FBS, 0.1% Insulin, 0.1% FGF, 0.1% Gentamycin sulfate-Amphotericin) and cultured for 24 hours in an incubator at 37°C, 5% CO2 conditions.
WST-8 analysis was performed to confirm cytotoxicity of the peptide (SEQ ID NO: 96) in dermal fibroblasts. The peptide was treated on dermal fibroblasts at concentrations of 10, 100 µM, 1, 5, 10 mM respectively. After treating for 48 hours at each concentration, WST-8 solution was dispensed into the culture medium at a 10:1 ratio, light-shielded, reacted for 2 hours under 37°C incubator conditions, and then measured at 450nm absorbance with a microplate.
The peptide (SEQ ID NO: 96) of the present invention was treated on dermal fibroblasts at concentrations of 10, 100 µM, 1, 5, 10 mM respectively. After 48 hours, cell viability was quantified through WST-8 analysis.

[2] = tested on: human-derived three-dimensional skin tissue; experiment: Skin penetration of fluorescence-conjugated peptide in human-derived three-dimensional skin tissue (confocal microscopy); type: in vitro ADME; conditions: 1 mM fluorescence-conjugated peptide
Procedure: To confirm the possibility of skin penetration of the peptides of the present invention, three-dimensional skin tissue composed of epidermis and dermis was created using human-derived keratinocytes and dermal fibroblasts, and then fluorescence-conjugated peptide (SEQ ID NO: 96) of the present invention at 1 mM was treated. After treatment, the position of fluorescence was continuously observed through confocal microscopy at 1, 6, 12, and 24 hours.
FITC fluorescence was attached to the lysine residue of the peptide (SEQ ID NO: 96) of the present invention to create Peptide-FITC using the peptide (SEQ ID NO: 96) of the present invention. Peptide-FITC at 1 mM was treated on human-derived three-dimensional skin tissue (TegoScience, Neoderm-ED) and the skin penetration state of Peptide-FITC was confirmed through confocal microscopy at 1 hour, 6 hours, 12 hours, and 24 hours.

position of fluorescence (skin penetration) ([2]; after 1 hour): observed in the stratum corneum
position of fluorescence (skin penetration) ([2]; after 6 hours): observed in the epidermal layer
position of fluorescence (skin penetration) ([2]; after 24 hours): existed in the dermal layer
position of fluorescence (skin penetration) ([2]; from 12 hours onward): began to be observed in the dermal layer
Sequence: KYKQKRRSYK [SEQ ID NO: 96, KYKQKRRSYK]
no cytotoxicity to dermal fibroblasts up to a concentration of [1]: ≤ 5 mM
significant cytotoxicity at a concentration of [1]: 10 mM
